Experimental data published in the NIST ThermoML archive (doi:10.1021/je9002114).

Experiments:
[1] = 298.15 K; for surface tension liquid-gas: Ring tensiometer; for mass density: 101.33 kPa, Liquid
[2] = xn = mol fraction of the nth substance listed; details: 298.15 K, Ring tensiometer

CCCCCCOC(C)=O [hexyl ethanoate]
[1]
Details	mass density [kg/m3]	surface tension liquid-gas [mN/m]
–	868.52	26.39

CCCCOC(C)=O [butyl ethanoate]
[1]
Details	mass density [kg/m3]	surface tension liquid-gas [mN/m]
–	876.38	24.85

C1COCCO1 [1,4-dioxane]
[1]
Details	mass density [kg/m3]	surface tension liquid-gas [mN/m]
–	1027.82	32.71

CCCCCCOC(C)=O [hexyl ethanoate] + CN(C)C=O
[2]
Details	surface tension liquid-gas [mN/m]
x1 = 0.0495	35.78
x1 = 0.0964	35.06
x1 = 0.1435	34.43
x1 = 0.198	33.72
x1 = 0.2432	33.16
x1 = 0.299	32.51
x1 = 0.349	31.96
x1 = 0.397	31.46
x1 = 0.444	31.02
x1 = 0.4969	30.57
x1 = 0.5461	30.12
x1 = 0.5945	29.72
x1 = 0.6434	29.35
x1 = 0.6908	29.01
x1 = 0.7457	28.61
x1 = 0.7896	28.31
x1 = 0.8466	27.99
x1 = 0.8951	27.67
x1 = 0.9494	27.41

CCCCCOC(C)=O [pentyl ethanoate] + C1COCCO1
[2]
Details	surface tension liquid-gas [mN/m]
x1 = 0.05	32.35
x1 = 0.1026	31.65
x1 = 0.1516	31.05
x1 = 0.2062	30.52
x1 = 0.2562	30.05
x1 = 0.311	29.48
x1 = 0.3637	29.01
x1 = 0.4209	28.58
x1 = 0.4616	28.27
x1 = 0.5112	27.92
x1 = 0.5614	27.55
x1 = 0.6136	27.3
x1 = 0.6558	27.07
x1 = 0.7043	26.89
x1 = 0.7538	26.71
x1 = 0.8033	26.56
x1 = 0.8511	26.39
x1 = 0.8956	26.26
x1 = 0.9449	26.12

CCCCOC(C)=O [butyl ethanoate] + C1COCCO1
[2]
Details	surface tension liquid-gas [mN/m]
x1 = 0.05	31.19
x1 = 0.0975	30.51
x1 = 0.1457	29.87
x1 = 0.1995	29.32
x1 = 0.2485	28.88
x1 = 0.2883	28.55
x1 = 0.3445	28.13
x1 = 0.3932	27.79
x1 = 0.4475	27.47
x1 = 0.4929	27.21
x1 = 0.5486	26.93
x1 = 0.592	26.69
x1 = 0.6429	26.45
x1 = 0.6933	26.2
x1 = 0.7466	25.97
x1 = 0.7954	25.8
x1 = 0.8438	25.56
x1 = 0.8901	25.36
x1 = 0.9419	25.16

CCCCCOC(C)=O [pentyl ethanoate] + CN(C)C=O
[2]
Details	surface tension liquid-gas [mN/m]
x1 = 0.05	34.9
x1 = 0.0941	34.08
x1 = 0.1466	33.24
x1 = 0.198	32.24
x1 = 0.2452	31.67
x1 = 0.2909	30.99
x1 = 0.3496	30.37
x1 = 0.3978	29.95
x1 = 0.4481	29.3
x1 = 0.4998	28.87
x1 = 0.5453	28.59
x1 = 0.5998	28.05
x1 = 0.6445	27.78
x1 = 0.6901	27.39
x1 = 0.7499	27.09
x1 = 0.7958	26.83
x1 = 0.8477	26.51
x1 = 0.8965	26.23
x1 = 0.9397	26.09

CCCCCCOC(C)=O [hexyl ethanoate] + C1COCCO1
[2]
Details	surface tension liquid-gas [mN/m]
x1 = 0.0467	32.56
x1 = 0.0925	32.06
x1 = 0.1414	31.56
x1 = 0.1905	31.1
x1 = 0.2422	30.62
x1 = 0.2921	30.17
x1 = 0.3417	29.79
x1 = 0.3934	29.43
x1 = 0.4434	29.11
x1 = 0.495	28.81
x1 = 0.5433	28.56
x1 = 0.5962	28.29
x1 = 0.6408	28.09
x1 = 0.6859	27.91
x1 = 0.7406	27.71
x1 = 0.7981	27.52
x1 = 0.8426	27.38
x1 = 0.8954	27.22
x1 = 0.9448	27.12

CCCCCOC(C)=O [pentyl ethanoate]
[1]
Details	mass density [kg/m3]	surface tension liquid-gas [mN/m]
–	870.17	25.21

CN(C)C=O [dimethylformamide]
[1]
Details	mass density [kg/m3]	surface tension liquid-gas [mN/m]
–	943.81	36.98

CCCCOC(C)=O [butyl ethanoate] + CN(C)C=O
[2]
Details	surface tension liquid-gas [mN/m]
x1 = 0.0508	35.02
x1 = 0.0995	33.45
x1 = 0.1441	32.35
x1 = 0.1809	31.7
x1 = 0.25	30.5
x1 = 0.2962	29.75
x1 = 0.3447	29.19
x1 = 0.3904	28.66
x1 = 0.4455	28.19
x1 = 0.4954	27.69
x1 = 0.5443	27.35
x1 = 0.5956	27.07
x1 = 0.648	26.66
x1 = 0.6993	26.36
x1 = 0.7466	26.16
x1 = 0.7935	25.81
x1 = 0.8467	25.65
x1 = 0.8983	25.47
x1 = 0.9464	25.26
